Test results published in patent publication US9650340B2, “5-fluoro-N-(pyridin-2-yl)pyridin-2-amine derivatives containing a sulfoximine group” (BAYER PHARMA AKTIENGESELLSCHAFT, priority 2012, dated 2017).
Structures can show the parent of a compound that is named as a salt. Where two headings read alike, the source gives them in different places.

Experiments:
[1] = test system: HeLa-MaTu-ADR, multidrug-resistant human cervical carcinoma cells; assay: Proliferation assay, HeLa-MaTu-ADR (crystal violet); type: cell-based; conditions: 4 days, read-out: Inhibition of HeLa-MaTu-ADR cell proliferation IC50
Experimental: (§1) Cultivated tumour cells (HeLa, human cervical tumour cells, ATCC CCL-2; NCI-H460, human non-small cell lung carcinoma cells, ATCC HTB-177; A2780, human ovarian carcinoma cells, ECACC #93112519; DU 145, hormone-independent human prostate carcinoma cells, ATCC HTB-81; HeLa-MaTu-ADR, multidrug-resistant human cervical carcinoma cells, EPO-GmbH Berlin; Caco-2, human colorectal carcinoma cells, ATCC HTB-37; B16F10, mouse melanoma cells, ATCC CRL-6475) were plated at a density of 5,000 cells/well (DU145, HeLa-MaTu-ADR), 3,000 cells/well (NCI-H460, HeLa), 2,500 cells/well (A2780), 1,500 cells/well (Caco-2), or 1,000 cells/well (B16F10) in a 96-well multititer plate in 200 μL of their respective growth medium supplemented 10% fetal calf serum. After 24 hours, the cells of one plate (zero-point plate) were stained with crystal violet (see below), while the medium of the other plates was replaced by fresh culture medium (200 μl), to which the test substances were added in various concentrations (0 μM, as well as in the range of 0.001-10 μM; the final concentration of the solvent dimethyl sulfoxide was 0.5%). The cells were incubated for 4 days in the presence of test substances. Cell proliferation was determined by staining the cells with crystal violet: the cells were fixed by adding 20 μl/measuring point of an 11% glutaric aldehyde solution for 15 minutes at room temperature. After three washing cycles of the fixed cells with water, the plates were dried at room temperature. The cells were stained by adding 100 μl/measuring point of a 0.1% crystal violet solution (pH 3.0). After three washing cycles of the stained cells with water, the plates were dried at room temperature. The dye was dissolved by adding 100 μl/measuring point of a 10% acetic acid solution. The extinction was determined by photometry at a wavelength of 595 nm. The change of cell number, in percent, was calculated by normalization of the measured values to the extinction values of the zero-point plate (=0%) and the extinction of the untreated (0 μm) cells (=100%). The IC50 values (inhibitory concentration at 50% of maximal effect) were determined by means of a 4 parameter fit. Non-adherent MOLM-13 human acute myeloid leukemia cells (DSMZ ACC 554) were seeded at a density of 5,000 cells/well in a 96-well multititer plate in 100 μL of growth medium supplemented 10% fetal calf serum. After 24 hours, cell viability of one plate (zero-point plate) was determined with the Cell Titre-Glo Luminescent Cell Viability Assay (Promega), while 50 μL of test compound containing medium was added to the wells of the other plates (final concentrations in the range of 0.001-10 μM and DMSO controls; the final concentration of the solvent dimethyl sulfoxide was 0.5%). Cell viability was assessed after 72-hour exposure with the Cell Titre-Glo Luminescent Cell Viability Assay (Promega).

[2] = test system: NCI-H460, human non-small cell lung carcinoma cells; assay: Proliferation assay, NCI-H460 (crystal violet); type: cell-based; conditions: NCI-H460, 4 days, read-out: Inhibition of NCI-H460 cell proliferation IC50
Experimental: as §1

CDK9/CycT1 = target: T1, CDK9/CycT1 (Homo sapiens, UniProt P50750); assay: CDK9/CycT1 high ATP kinase assay (TR-FRET, 2 mM ATP); type: biochemical; conditions: Method 1b
T1 construct: Recombinant full-length His-tagged human CDK9 and CycT1; His; purchased Invitrogen PV4131; host or cells: insect cells
Experimental: 1b. CDK9/CyeT1 High ATP Kinase Assay
CDK9/CycT1-inhibitory activity of compounds of the present invention at a high ATP concentration after preincubation of enzyme and test compounds was quantified employing the CDK9/CycT1 TR-FRET assay as described in the following paragraphs.
Recombinant full-length His-tagged human CDK9 and CycT1, expressed in insect cells and purified by Ni-NTA affinity chromatography, were purchase from Invitrogen (Cat. No PV4131). As substrate for the kinase reaction biotinylated peptide biotin-Ttds-[…] (C-terminus in amid form) was used which can be purchased e.g. form the company JERINI peptide technologies (Berlin, Germany). For the assay 50 nl of a 100 fold concentrated solution of the test compound in DMSO was pipetted into a black low volume 384 well microtiter plate (Greiner Bio-One, Frickenhausen, Germany), 2 μl of a solution of CDK9/CycT1 in aqueous assay buffer [50 mM Tris/HCl pH 8.0, 10 mM MgCl2, 1.0 mM dithiothreitol, 0.1 mM sodium ortho-vanadate, 0.01% (v/v) Nonidet-P40 (Sigma)] were added and the mixture was incubated for 15 min at 22° C. to allow pre-binding of the test compounds to the enzyme before the start of the kinase reaction. Then the kinase reaction was started by the addition of 3 μl of a solution of adenosine-tri-phosphate (ATP, 3.3 mM=>final conc. in the 5 μl assay volume is 2 mM) and substrate (1.67 μM=>final conc. in the 5 μl assay volume is 1 μM) in assay buffer and the resulting mixture was incubated for a reaction time of 25 min at 22° C.
The resulting mixture was incubated 1 h at 22° C. to allow the formation of complex between the phosphorylated biotinylated peptide and the detection reagents. Subsequently the amount of phosphorylated substrate was evaluated by measurement of the resonance energy transfer from the Eu-chelate to the streptavidine-XL. Therefore, the fluorescence emissions at 620 nm and 665 nm after excitation at 350 nm was measured in a HTRF reader, e.g. a Rubystar (BMG Labtechnologies, Offenburg, Germany) or a Viewlux (Perkin-Elmer). The ratio of the emissions at 665 nm and at 622 nm was taken as the measure for the amount of phosphorylated substrate.

T1 sequence (P50750 whole entry): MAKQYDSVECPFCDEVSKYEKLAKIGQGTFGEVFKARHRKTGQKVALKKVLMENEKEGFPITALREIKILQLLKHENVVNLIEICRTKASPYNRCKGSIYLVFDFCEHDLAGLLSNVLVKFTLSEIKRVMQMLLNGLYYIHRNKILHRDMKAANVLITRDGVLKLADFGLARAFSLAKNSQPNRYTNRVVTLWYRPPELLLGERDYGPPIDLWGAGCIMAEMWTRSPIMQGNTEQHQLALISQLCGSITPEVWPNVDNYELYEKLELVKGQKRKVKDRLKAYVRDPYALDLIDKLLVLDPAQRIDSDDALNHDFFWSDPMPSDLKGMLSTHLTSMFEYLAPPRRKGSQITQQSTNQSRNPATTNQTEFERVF
T1 sequence (O60563 whole entry partner): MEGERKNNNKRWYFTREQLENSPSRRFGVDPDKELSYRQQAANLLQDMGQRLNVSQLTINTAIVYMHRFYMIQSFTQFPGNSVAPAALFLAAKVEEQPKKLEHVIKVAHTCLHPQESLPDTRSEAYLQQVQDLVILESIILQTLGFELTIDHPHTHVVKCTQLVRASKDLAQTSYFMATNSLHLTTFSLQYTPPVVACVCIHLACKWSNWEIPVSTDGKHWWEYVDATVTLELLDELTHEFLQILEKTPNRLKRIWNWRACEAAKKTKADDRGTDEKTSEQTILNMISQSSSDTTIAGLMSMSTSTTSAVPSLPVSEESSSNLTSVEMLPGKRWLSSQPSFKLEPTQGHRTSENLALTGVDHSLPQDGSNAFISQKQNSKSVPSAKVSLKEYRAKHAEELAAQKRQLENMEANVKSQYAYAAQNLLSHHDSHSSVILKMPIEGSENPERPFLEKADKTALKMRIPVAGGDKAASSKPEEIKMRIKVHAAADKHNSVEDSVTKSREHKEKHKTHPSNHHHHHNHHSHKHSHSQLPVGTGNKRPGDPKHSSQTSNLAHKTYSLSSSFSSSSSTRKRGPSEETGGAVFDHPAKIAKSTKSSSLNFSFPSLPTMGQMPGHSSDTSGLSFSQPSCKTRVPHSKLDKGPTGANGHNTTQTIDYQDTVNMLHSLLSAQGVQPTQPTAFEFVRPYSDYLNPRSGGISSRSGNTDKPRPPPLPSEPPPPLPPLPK

Row | IC50 ([1]; Homo sapiens, 96 h) [nM] | IC50 ([2]; Homo sapiens, NCI-H460, 96 h) [nM] | IC50 (CDK9/CycT1) [nM] | IC50 [1] [nM] | IC50 [2] [nM] | Structure (SMILES)
1 | 110 | 110 | 1 |  |  | COc1cc(F)ccc1-c1cc(Nc2cc(CS(C)(=O)=NC(C)=O)ccn2)ncc1F (racemic) [Example 13, (rac)-N-{[(2-{[5-Fluoro-4-(4-fluoro-2-methoxyphenyl)pyridin-2-yl]amino}pyridin-4-yl)methyl](methyl)oxido-λ^6-sulfanylidene}acetamide]
2 | 31 | 32 | 1 |  |  | CCOC(=O)N=S(C)(=O)Cc1cc(Nc2cc(-c3ccc(F)cc3OC)c(F)cn2)nc(OC)c1 (racemic) [Example 15, (rac)-ethyl{[(2-{[5-fluoro-4-(4-fluoro-2-methoxyphenyl)pyridin-2-yl]amino}-6-methoxypyridin-4-yl)methyl](methyl)oxido-λ^6-sulfanylidene}carbamate]
3 | 33 | 45 | 1.8 |  |  | COc1cc(F)ccc1-c1cc(Nc2cc(CS(C)(=N)=O)cc(F)n2)ncc1F (racemic) [Example 17, (rac)-5-Fluoro-4-(4-fluoro-2-methoxyphenyl)-N-{6-fluoro-4-[(S-methylsulfonimidoyl)methyl]pyridin-2-yl}pyridin-2-amine]
4 |  |  | 1 |  |  | COc1cc(F)ccc1-c1cc(Nc2cc(CS(C)(=N)=O)cc(C(F)F)n2)ncc1F (racemic) [Example 31, (rac)-N-{6-(Difluoromethyl)-4-[(S-methylsulfonimidoyl)methyl]pyridin-2-yl}-5-fluoro-4-(4-fluoro-2-methoxyphenyl)pyridin-2-amine]
5 |  |  |  | 110 | 130 | COc1cc(F)ccc1-c1cc(Nc2cc(CS(C)(=N)=O)ccn2)ncc1F (single isomer, unassigned; enantiomer 1) [Example 16, 5-Fluoro-4-(4-fluoro-2-methoxyphenyl)-N-{4-[(S-methylsulfonimidoyl)methyl]pyridin-2-yl}pyridin-2-amine hydrochloride; enantiomer 1]
6 |  |  |  | 46 | 30 | COc1cc(F)ccc1-c1cc(Nc2cc(CS(C)(=N)=O)ccn2)ncc1F.Cl (single isomer, unassigned; enantiomer 2) [Example 14, 5-Fluoro-4-(4-fluoro-2-methoxyphenyl)-N-{4-[(S-methylsulfonimidoyl)methyl]pyridin-2-yl}pyridin-2-amine hydrochloride; enantiomer 2]

Continued, compound first:

Row | Structure (SMILES) | IC50 ([1]; Homo sapiens, 96 h) [nM] | IC50 ([2]; Homo sapiens, NCI-H460, 96 h) [nM] | IC50 (CDK9/CycT1) [nM] | IC50 [1] [nM] | IC50 [2] [nM]
7 | COc1cc(F)ccc1-c1cc(Nc2cc(CS(C)(=N)=O)ccn2)ncc1F (racemic) [Example 1, (rac)-5-Fluoro-4-(4-fluoro-2-methoxyphenyl)-N-{4-[(S-methylsulfonimidoyl)methyl]pyridin-2-yl}pyridin-2-amine] | 61 | 62 |  |  | 
8 | COc1cc(F)ccc1-c1cc(Nc2cc(CS(C)(=N)=O)cc(C)n2)ncc1F (racemic) [Example 4, (rac)-5-Fluoro-4-(4-fluoro-2-methoxyphenyl)-N-{6-methyl-4-[(S-methylsulfonimidoyl)methyl]pyridin-2-yl}pyridin-2-amine] | 34 | 97 | 2 |  | 
9 | COc1cc(F)ccc1-c1cc(Nc2cc(CS(C)(=N)=O)c(Br)c(C)n2)ncc1F (racemic) [Example 5, (rac)-5-Bromo-N-[5-fluoro-4-(4-fluoro-2-methoxyphenyl)pyridin-2-yl]-6-methyl-4-[(S-methylsulfonimidoyl)methyl]pyridin-2-amine] |  | 120 | 3 |  | 
10 | COc1cc(CS(C)(=N)=O)cc(Nc2cc(-c3ccc(F)cc3OC)c(F)cn2)n1 (racemic) [Example 6, (rac)-5-Fluoro-4-(4-fluoro-2-methoxyphenyl)-N-{6-methoxy-4-[(S-methylsulfonimidoyl)methyl]pyridin-2-yl}pyridin-2-amine] | 30 | 33 | 1 |  | 
11 | COc1cc(F)ccc1-c1cc(Nc2cc(CS(C)(=N)=O)cc(Cl)n2)ncc1F (racemic) [Example 7, (rac)-N-{6-Chloro-4-[(S-methylsulfonimidoyl)methyl]pyridin-2-yl}-5-fluoro-4-(4-fluoro-2-methoxyphenyl)pyridin-2-amine] | 32 | 47 | 2 |  | 
12 | COc1cc(F)ccc1-c1cc(Nc2cc(CS(=N)(=O)CCO)ccn2)ncc1F (racemic) [Example 8, (rac)-2-{S-[(2-{[5-Fluoro-4-(4-fluoro-2-methoxyphenyl)pyridin-2-yl]amino}pyridin-4-yl)methyl]sulfonimidoyl}ethanol] | 200 | 290 | 14 |  | 
13 | COc1cc(F)ccc1-c1cc(Nc2cc(CS(=N)(=O)CCN)ccn2)ncc1F (racemic) [Example 9, (rac)-N-(4-{[S-(2-Aminoethyl)sulfonimidoyl]methyl}pyridin-2-yl)-5-fluoro-4-(4-fluoro-2-methoxyphenyl)pyridin-2-amine] |  |  | 6 |  | 
14 | CCOC(=O)N=S(C)(=O)Cc1ccnc(Nc2cc(-c3ccc(F)cc3OC)c(F)cn2)c1 (racemic) [Example 11, (rac)-Ethyl{[(2-{[5-fluoro-4-(4-fluoro-2-methoxyphenyl)pyridin-2-yl]amino}pyridin-4-yl)methyl](methyl)oxido-λ^6-sulfanylidene}carbamate] | 100 | 110 | 1 |  | 
15 | CCNC(=O)N=S(C)(=O)Cc1ccnc(Nc2cc(-c3ccc(F)cc3OC)c(F)cn2)c1 (racemic) [Example 12, (rac)-1-Ethyl-3-{[(2-{[5-fluoro-4-(4-fluoro-2-methoxyphenyl)pyridin-2-yl]amino}pyridin-4-yl)methyl](methyl)oxido-λ^6-sulfanylidene}urea] | 100 | 100 | 2 |  | 
16 | COc1cc(F)ccc1-c1cc(Nc2cc(CS(C)(=N)=O)ccn2)ncc1F (single isomer, unassigned; (+)) [Example 2, (+)-5-Fluoro-4-(4-fluoro-2-methoxyphenyl)-N-{4-[(S-methylsulfonimidoyl)methyl]pyridin-2-yl}pyridin-2-amine] |  |  |  | 33 | 75
17 | COc1cc(F)ccc1-c1cc(Nc2cc(CS(C)(=N)=O)ccn2)ncc1F (single isomer, unassigned; (-)) [Example 3, (−)-5-Fluoro-4-(4-fluoro-2-methoxyphenyl)-N-{4-[(S-methylsulfonimidoyl)methyl]pyridin-2-yl}pyridin-2-amine] |  |  |  | 37 | 65
